Test results taken from US20220364132A1, “METHOD FOR FORMING A STORAGE STABLE H[…] A LIGNO[…]” (Sekab E- Technology AB, priority 2019, published 2022).

What was measured:
Format in all cases: cell-based
Lactobacillus sp. [1] = test: Storage of a sugar-rich hydrolysate inoculated with Lactobacillus sp., glucose by HPLC
Protocol: (§1) To test the theory, synthetic media was made containing about 90 g/l glucose, 0.5% sodium phosphate/phosphoric acid buffer (pH 5.5), 0.5 g/l diammonium phosphate, 2 g/l yeast extract and 2 g/l peptone. This solution (45 ml) was added to 50 ml serum bottles, along with a magnetic stirrer bar, and autoclaved, where after sodium sulfite at concentrations of 5, 10, 20 and 40 mM was added, while some bottles had no sulfite added, which served as control (0 mM). […] This culture was incubated at 37° C. for 36 hours and used to inoculate all the serum bottles (10% v/v). The serum bottles were then sealed with an airtight septum and a metal ring clamp and two needles were inserted through the septum to allow for sampling. The serum bottles were placed on a magnetic stirrer plate at room temperature (since storage tanks are typically kept at room temperature), with stirring at 100 rpm. Samples were taken periodically and analyzed for glucose and lactic acid using HPLC. Experiments were performed in triplicate. The experiments were continued for 11 days.
Storage of sugar-rich hydrolysate with addition of 5-40 mM was performed in accordance with the description of example 2. In this example, the samples were prepared and handled as in example 2. In other words, the “Experiment A” samples in this example are identical to those of example 2, and these were used as a reference for the “Experiment B” and “Experiment C” samples, as well as for validating the results of example 2.
The “Experiment B” samples were inoculated with a Lactobacillus sp. at time 0 hours, and again after 336 hours. This was done to test the infection resistance of samples that were exposed to more than one culture of Lactobacillus sp; i.e. samples that were re-infected after two weeks.
The samples in “Experiment C” were stored at ambient room temperature for 2 weeks, after which Lactobacillus was added to the flasks, after 336 hours. Samples were incubated for another 7 days and a total of 21 days as for the other two experiments.

Lactobacillus sp. [2] = test: Bacterial contamination in a sugar-rich hydrolysate comprising 10% non-detoxified spruce hydrolysate, glucose by HPLC
Protocol: as §1
Experiments in this example were performed according to the description in example 2 with the difference that the sugar-rich hydrolysate contained 10% (v/v) non-detoxified spruce hydrolysate. This was done to simulate sugar-rich hydrolysate with some inhibitory impurities present that may arise from insufficient separation and/or washing.
In the “Experiment A” samples, serum bottles were inoculated with Lactobacillus sp. at time 0 hours and incubated at room temperature for 21 days. Samples were taken periodically and analyzed for glucose and lactic acid (not shown here) using HPLC.
In the “Experiment B” samples, serum bottles were inoculated twice—firstly on the first day and again two weeks later, to simulate a re-infection and test the longevity of the inhibitory effect of sodium sulfite.
In Experiment “C”, the third group of serum bottles were inoculated after two weeks of storage at room temperature and inoculated with Lactobacillus (after 14 days).

lactic acid bacteria = test: Bacterial contamination in a sugar-rich hydrolysate (synthetic media), glucose and lactic acid by HPLC; conditions: 5, 10, 20 and 40 mM, room temperature, 11 days, FIG. 3
Source text: The aim of this experiment was to test the potential of sodium sulfite to control bacterial contamination in the storage tanks which contain sugar-rich hydrolysate streams before they are used in fermentations. The hydrolysate is representative of a hydrolysate according to the present disclosure.
as §1

Lactobacillus = test: Bacterial contamination in a non-separated (non-detoxified) spruce hydrolysate, lactic acid by HPLC; conditions: FIG. 2
Protocol: Non-detoxified spruce hydrolysate (with added 2 g/l yeast extract; 0.5% sodium phosphate; 0.5 g/l diammonium phosphate; 2 g/l peptone and diluted with water to 30 g/l glucose) was filter sterilized and used to represent feed media. An inoculum was prepared using MRS media and the same contaminated sample as used in previous experiments, and was incubated at 37° C. overnight (16 hours). Sodium sulfite was added at concentrations of 0 mM, 5 mM, 10 mM, 20 mM and 40 mM, respectively, to 25 ml serum bottles with 22.5 ml of the feed media. After inoculation, the bottles were placed on a multiple magnetic stirring plate at room temperature, with samples taken periodically and analyzed using HPLC.
The hydrolysate used may represent a feed stream where no separation of the pretreatment liquid and solid component has taken place. In other words, hydrolysis and fermentation inhibitors are still present in the feed stream.

O=S([O-])[O-].[Na+].[Na+] [sodium sulfite]
growth of Lactobacillus sp. (Lactobacillus sp. [1]; 5, 10, 20 and 40 mM, three weeks of incubation): inhibited the growth | Glucose (Lactobacillus sp. [1]; Experiment A, 5 mM, 0 h): 83.3 g/L | Glucose (Lactobacillus sp. [1]; Experiment A, 5 mM, 172 h): 84.0 g/L | Glucose (Lactobacillus sp. [1]; Experiment A, 5 mM, 340 h): 83.5 g/L | Glucose (Lactobacillus sp. [1]; Experiment A, 5 mM, 510 h): 83.2 g/L | Glucose (Lactobacillus sp. [1]; Experiment A, 10 mM, 0 h): 84.1 g/L | Glucose (Lactobacillus sp. [1]; Experiment A, 10 mM, 172 h): 85.3 g/L | Glucose (Lactobacillus sp. [1]; Experiment A, 10 mM, 340 h): 82.8 g/L | Glucose (Lactobacillus sp. [1]; Experiment A, 10 mM, 510 h): 82.2 g/L | Glucose (Lactobacillus sp. [1]; Experiment A, 20 mM, 0 h): 83.7 g/L | Glucose (Lactobacillus sp. [1]; Experiment A, 20 mM, 172 h): 85.6 g/L | Glucose (Lactobacillus sp. [1]; Experiment A, 20 mM, 340 h): 86.8 g/L | Glucose (Lactobacillus sp. [1]; Experiment A, 20 mM, 510 h): 84.7 g/L | Glucose (Lactobacillus sp. [1]; Experiment A, 40 mM, 0 h): 81.5 g/L | Glucose (Lactobacillus sp. [1]; Experiment A, 40 mM, 172 h): 83.2 g/L | Glucose (Lactobacillus sp. [1]; Experiment A, 40 mM, 340 h): 83.2 g/L | Glucose (Lactobacillus sp. [1]; Experiment A, 40 mM, 510 h): 83.6 g/L | glucose consumption (Lactobacillus sp. [1]; Experiment A, flasks with added sodium sulfite, three weeks): no glucose consumption | bacterial growth (Lactobacillus sp. [1]; Experiment B (inoculated at 0 h and 336 h), 5 mM or more, 21 days): No signs of bacterial growth | Glucose (Lactobacillus sp. [1]; Experiment B, 5 mM, 0 h): 82.3 g/L | Glucose (Lactobacillus sp. [1]; Experiment B, 5 mM, 172 h): 82.9 g/L | Glucose (Lactobacillus sp. [1]; Experiment B, 5 mM, 340 h): 82.6 g/L | Glucose (Lactobacillus sp. [1]; Experiment B, 5 mM, 510 h): 78.3 g/L | Glucose (Lactobacillus sp. [1]; Experiment B, 10 mM, 0 h): 82.9 g/L | Glucose (Lactobacillus sp. [1]; Experiment B, 10 mM, 172 h): 84.3 g/L | Glucose (Lactobacillus sp. [1]; Experiment B, 10 mM, 340 h): 81.5 g/L | Glucose (Lactobacillus sp. [1]; Experiment B, 10 mM, 510 h): 80.8 g/L | Glucose (Lactobacillus sp. [1]; Experiment B, 20 mM, 0 h): 82.8 g/L | Glucose (Lactobacillus sp. [1]; Experiment B, 20 mM, 172 h): 74.7 g/L | Glucose (Lactobacillus sp. [1]; Experiment B, 20 mM, 340 h): 86.0 g/L | Glucose (Lactobacillus sp. [1]; Experiment B, 20 mM, 510 h): 83.3 g/L | Glucose (Lactobacillus sp. [1]; Experiment B, 40 mM, 0 h): 80.2 g/L | Glucose (Lactobacillus sp. [1]; Experiment B, 40 mM, 172 h): 82.1 g/L | Glucose (Lactobacillus sp. [1]; Experiment B, 40 mM, 340 h): 82.0 g/L | Glucose (Lactobacillus sp. [1]; Experiment B, 40 mM, 510 h): 82.5 g/L | bacterial growth (Lactobacillus sp. [1]; Experiment C (14 days storage at room temperature, then inoculated), concentrations above 5 mM): no growth was observed | Glucose (Lactobacillus sp. [1]; Experiment C, 5 mM, 0 h): 81.2 g/L | Glucose (Lactobacillus sp. [1]; Experiment C, 5 mM, 172 h): 81.6 g/L | Glucose (Lactobacillus sp. [1]; Experiment C, 5 mM, 340 h): 85.5 g/L | Glucose (Lactobacillus sp. [1]; Experiment C, 5 mM, 510 h): 82.0 g/L | Glucose (Lactobacillus sp. [1]; Experiment C, 10 mM, 0 h): 82.2 g/L | Glucose (Lactobacillus sp. [1]; Experiment C, 10 mM, 172 h): 81.8 g/L | Glucose (Lactobacillus sp. [1]; Experiment C, 10 mM, 340 h): 84.0 g/L | Glucose (Lactobacillus sp. [1]; Experiment C, 10 mM, 510 h): 82.4 g/L | Glucose (Lactobacillus sp. [1]; Experiment C, 20 mM, 0 h): 80.8 g/L | Glucose (Lactobacillus sp. [1]; Experiment C, 20 mM, 172 h): 80.3 g/L | Glucose (Lactobacillus sp. [1]; Experiment C, 20 mM, 340 h): 84.5 g/L | Glucose (Lactobacillus sp. [1]; Experiment C, 20 mM, 510 h): 83.3 g/L | Glucose (Lactobacillus sp. [1]; Experiment C, 40 mM, 0 h): 82.0 g/L | Glucose (Lactobacillus sp. [1]; Experiment C, 40 mM, 172 h): 81.6 g/L | Glucose (Lactobacillus sp. [1]; Experiment C, 40 mM, 340 h): 86.2 g/L | Glucose (Lactobacillus sp. [1]; Experiment C, 40 mM, 510 h): 82.0 g/L | effect on Lactobacillus sp. growth (Lactobacillus sp. [2]; 40 mM, hydrolysate with 10% (v/v) non-detoxified spruce hydrolysate, Experiments A-C): antimicrobial effect | growth relative to sample with no sulfite (detoxification effect) (Lactobacillus sp. [2]; 5-20 mM, hydrolysate with 10% (v/v) non-detoxified spruce hydrolysate): grew faster | Glucose (Lactobacillus sp. [2]; Experiment A, 5 mM, 0 h): 83.8 g/L | Glucose (Lactobacillus sp. [2]; Experiment A, 5 mM, 168 h): 71.9 g/L | Glucose (Lactobacillus sp. [2]; Experiment A, 5 mM, 336 h): 66.3 g/L | Glucose (Lactobacillus sp. [2]; Experiment A, 5 mM, 508 h): 65.9 g/L | Glucose (Lactobacillus sp. [2]; Experiment A, 10 mM, 0 h): 84.8 g/L | Glucose (Lactobacillus sp. [2]; Experiment A, 10 mM, 168 h): 72.9 g/L | Glucose (Lactobacillus sp. [2]; Experiment A, 10 mM, 336 h): 64.6 g/L | Glucose (Lactobacillus sp. [2]; Experiment A, 10 mM, 508 h): 63.8 g/L | Glucose (Lactobacillus sp. [2]; Experiment A, 20 mM, 0 h): 83.4 g/L | Glucose (Lactobacillus sp. [2]; Experiment A, 20 mM, 168 h): 75.2 g/L | Glucose (Lactobacillus sp. [2]; Experiment A, 20 mM, 336 h): 70.1 g/L | Glucose (Lactobacillus sp. [2]; Experiment A, 20 mM, 508 h): 67.2 g/L | Glucose (Lactobacillus sp. [2]; Experiment A, 40 mM, 0 h): 82.0 g/L | Glucose (Lactobacillus sp. [2]; Experiment A, 40 mM, 168 h): 80.1 g/L | Glucose (Lactobacillus sp. [2]; Experiment A, 40 mM, 336 h): 77.0 g/L | Glucose (Lactobacillus sp. [2]; Experiment A, 40 mM, 508 h): 82.5 g/L | Glucose (Lactobacillus sp. [2]; Experiment B, 5 mM, 0 h): 83.8 g/L | Glucose (Lactobacillus sp. [2]; Experiment B, 5 mM, 168 h): 72.6 g/L | Glucose (Lactobacillus sp. [2]; Experiment B, 5 mM, 336 h): 66.8 g/L | Glucose (Lactobacillus sp. [2]; Experiment B, 5 mM, 508 h): 69.0 g/L | Glucose (Lactobacillus sp. [2]; Experiment B, 10 mM, 0 h): 81.7 g/L | Glucose (Lactobacillus sp. [2]; Experiment B, 10 mM, 168 h): 71.5 g/L | Glucose (Lactobacillus sp. [2]; Experiment B, 10 mM, 336 h): 67.9 g/L | Glucose (Lactobacillus sp. [2]; Experiment B, 10 mM, 508 h): 73.4 g/L | Glucose (Lactobacillus sp. [2]; Experiment B, 20 mM, 0 h): 83.1 g/L | Glucose (Lactobacillus sp. [2]; Experiment B, 20 mM, 168 h): 69.0 g/L | Glucose (Lactobacillus sp. [2]; Experiment B, 20 mM, 336 h): 72.4 g/L | Glucose (Lactobacillus sp. [2]; Experiment B, 20 mM, 508 h): 72.1 g/L | Glucose (Lactobacillus sp. [2]; Experiment B, 40 mM, 0 h): 85.2 g/L | Glucose (Lactobacillus sp. [2]; Experiment B, 40 mM, 168 h): 86.6 g/L | Glucose (Lactobacillus sp. [2]; Experiment B, 40 mM, 336 h): 86.2 g/L | Glucose (Lactobacillus sp. [2]; Experiment B, 40 mM, 508 h): 86.3 g/L | Glucose (Lactobacillus sp. [2]; Experiment C, 5 mM, 0 h): 85.4 g/L | Glucose (Lactobacillus sp. [2]; Experiment C, 5 mM, 168 h): 84.8 g/L | Glucose (Lactobacillus sp. [2]; Experiment C, 5 mM, 336 h): 83.4 g/L | Glucose (Lactobacillus sp. [2]; Experiment C, 5 mM, 508 h): 77.1 g/L | Glucose (Lactobacillus sp. [2]; Experiment C, 10 mM, 0 h): 84.8 g/L | Glucose (Lactobacillus sp. [2]; Experiment C, 10 mM, 168 h): 81.7 g/L | Glucose (Lactobacillus sp. [2]; Experiment C, 10 mM, 336 h): 81.9 g/L | Glucose (Lactobacillus sp. [2]; Experiment C, 10 mM, 508 h): 75.5 g/L | Glucose (Lactobacillus sp. [2]; Experiment C, 20 mM, 0 h): 85.9 g/L | Glucose (Lactobacillus sp. [2]; Experiment C, 20 mM, 168 h): 82.3 g/L | Glucose (Lactobacillus sp. [2]; Experiment C, 20 mM, 336 h): 83.5 g/L | Glucose (Lactobacillus sp. [2]; Experiment C, 20 mM, 508 h): 79.5 g/L | Glucose (Lactobacillus sp. [2]; Experiment C, 40 mM, 0 h): 80.9 g/L | Glucose (Lactobacillus sp. [2]; Experiment C, 40 mM, 168 h): 81.0 g/L | Glucose (Lactobacillus sp. [2]; Experiment C, 40 mM, 336 h): 85.6 g/L | Glucose (Lactobacillus sp. [2]; Experiment C, 40 mM, 508 h): 82.6 g/L | concentration of lactic acid (lactic acid bacteria): 0 g/L | growth of lactic acid bacteria (lactic acid bacteria): inhibited the growth | antimicrobial effect on the hydrolysate (Lactobacillus; 5 to 40 mM sodium sulfite, room temperature): no antimicrobial effect | bacterial growth (Lactobacillus; sodium sulfite added (5 to 40 mM)): increased bacterial growth
